Measured values as given in ChEMBL document CHEMBL1201862, “PubChem BioAssay data set” (2004).
The source made the active and inactive calls.

How the values were obtained:
[1] = target: T1, Calpain-2 catalytic subunit (Sus scrofa, UniProt P43367); assay: pig calpain II inhibitor potency, dose response, biochemical, fluorogenic peptide substrate (AID 1420); type: functional
T1 sequence (P43367 whole entry): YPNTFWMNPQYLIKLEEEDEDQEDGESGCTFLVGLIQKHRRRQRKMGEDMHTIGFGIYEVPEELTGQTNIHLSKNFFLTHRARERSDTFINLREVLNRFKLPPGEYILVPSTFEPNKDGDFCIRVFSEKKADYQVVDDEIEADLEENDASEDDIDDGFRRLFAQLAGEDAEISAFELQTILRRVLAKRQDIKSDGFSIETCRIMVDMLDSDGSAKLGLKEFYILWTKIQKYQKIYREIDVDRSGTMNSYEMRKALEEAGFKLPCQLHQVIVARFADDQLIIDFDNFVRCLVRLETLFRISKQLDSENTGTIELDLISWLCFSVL

Large T antigen = Large T antigen (Simian virus 40, UniProt P03070); type: functional, Betapolyomavirus macacae;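 note: Confirmatory-stage PubChem screen for compounds that inhibit SV40 T antigen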
Large T antigen, sequence (P03070 whole entry): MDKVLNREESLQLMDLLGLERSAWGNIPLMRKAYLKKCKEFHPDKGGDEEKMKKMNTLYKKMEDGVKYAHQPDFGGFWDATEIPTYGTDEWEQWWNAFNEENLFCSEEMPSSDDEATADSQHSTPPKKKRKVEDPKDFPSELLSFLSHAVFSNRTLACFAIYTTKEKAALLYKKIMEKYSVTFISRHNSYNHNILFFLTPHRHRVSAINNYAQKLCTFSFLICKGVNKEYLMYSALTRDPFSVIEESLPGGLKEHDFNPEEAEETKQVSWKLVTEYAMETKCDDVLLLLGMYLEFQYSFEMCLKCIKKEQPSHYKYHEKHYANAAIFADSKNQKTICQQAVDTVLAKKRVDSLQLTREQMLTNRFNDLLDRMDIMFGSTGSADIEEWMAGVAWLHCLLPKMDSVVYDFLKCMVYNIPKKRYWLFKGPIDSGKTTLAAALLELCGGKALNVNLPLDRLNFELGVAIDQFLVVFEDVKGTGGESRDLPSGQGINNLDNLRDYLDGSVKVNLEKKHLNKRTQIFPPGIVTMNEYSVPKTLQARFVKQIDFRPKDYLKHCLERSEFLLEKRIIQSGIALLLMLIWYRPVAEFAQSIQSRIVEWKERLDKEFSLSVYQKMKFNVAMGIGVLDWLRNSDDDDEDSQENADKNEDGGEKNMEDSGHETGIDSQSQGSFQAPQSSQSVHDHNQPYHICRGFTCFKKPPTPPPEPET

[2] = target: FAD-linked sulfhydryl oxidase ALR (Homo sapiens, UniProt P55789); assay: inhibitors of human ALR sulfhydryl oxidase, dose response, biochemical, H2O2 detection, luminescence, cherry-pick (AID 493248)
FAD-linked sulfhydryl oxidase ALR, sequence (P55789 whole entry): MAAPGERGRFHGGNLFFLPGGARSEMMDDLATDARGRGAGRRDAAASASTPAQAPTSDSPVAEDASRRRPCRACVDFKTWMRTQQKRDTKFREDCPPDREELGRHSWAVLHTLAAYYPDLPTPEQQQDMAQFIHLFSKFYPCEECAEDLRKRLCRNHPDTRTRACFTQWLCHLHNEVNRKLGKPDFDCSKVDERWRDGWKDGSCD

[3] = target: T2, Rac GTPase-activating protein 1 (Homo sapiens, UniProt Q9H0H5); assay: MgcRacGAP GTPase-activating activity inhibitors, confirmation, biochemical, ADP Hunter fluorescence, primary and confirmatory (AID 624330); type: functional
T2 sequence (Q9H0H5 whole entry): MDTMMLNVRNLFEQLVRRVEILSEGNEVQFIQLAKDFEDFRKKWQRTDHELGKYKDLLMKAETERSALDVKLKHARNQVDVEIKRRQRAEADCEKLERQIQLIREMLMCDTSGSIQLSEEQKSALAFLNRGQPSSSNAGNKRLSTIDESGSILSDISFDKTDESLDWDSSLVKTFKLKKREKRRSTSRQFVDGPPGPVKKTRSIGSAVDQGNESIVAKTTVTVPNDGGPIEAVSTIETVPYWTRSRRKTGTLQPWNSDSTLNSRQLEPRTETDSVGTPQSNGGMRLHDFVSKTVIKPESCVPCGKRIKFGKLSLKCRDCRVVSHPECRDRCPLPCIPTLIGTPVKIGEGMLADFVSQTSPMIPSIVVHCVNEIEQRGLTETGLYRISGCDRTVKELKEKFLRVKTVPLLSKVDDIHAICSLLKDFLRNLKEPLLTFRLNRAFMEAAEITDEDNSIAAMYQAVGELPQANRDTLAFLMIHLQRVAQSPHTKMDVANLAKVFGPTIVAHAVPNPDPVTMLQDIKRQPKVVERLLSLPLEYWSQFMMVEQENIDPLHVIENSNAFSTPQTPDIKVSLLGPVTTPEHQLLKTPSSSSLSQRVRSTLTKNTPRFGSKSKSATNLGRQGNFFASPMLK

[4] = NIH-3T3 fibroblast cytotoxicity, dose response, cytotoxicity control, cell-based, fluorescence, Alamar Blue, secondary assay (AID 2327); type: functional;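 note: NIH-3T3 mouse fibroblasts cultured with fluconazole at 8 µg/mL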
Vero = assay: cells; type: functional; conditions: Chlorocebus sabaeus
Cytochrome P450 3A4 [5] = target: T3, Cytochrome P450 3A4 (Homo sapiens, UniProt P08684); conditions: Potency
T3 sequence (P08684 whole entry): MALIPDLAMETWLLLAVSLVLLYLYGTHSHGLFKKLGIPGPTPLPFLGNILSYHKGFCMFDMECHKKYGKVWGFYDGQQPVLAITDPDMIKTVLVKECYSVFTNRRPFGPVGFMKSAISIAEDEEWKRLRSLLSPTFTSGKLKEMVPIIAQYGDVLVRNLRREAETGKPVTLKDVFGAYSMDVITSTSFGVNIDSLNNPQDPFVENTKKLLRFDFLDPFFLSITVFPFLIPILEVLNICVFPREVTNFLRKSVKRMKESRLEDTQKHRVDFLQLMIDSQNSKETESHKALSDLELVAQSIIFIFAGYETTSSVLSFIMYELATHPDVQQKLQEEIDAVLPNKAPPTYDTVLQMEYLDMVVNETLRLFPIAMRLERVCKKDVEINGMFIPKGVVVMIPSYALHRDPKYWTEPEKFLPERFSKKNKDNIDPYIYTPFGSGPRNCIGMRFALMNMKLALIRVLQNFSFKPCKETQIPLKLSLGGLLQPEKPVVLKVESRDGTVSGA

Cytochrome P450 2C19 = Cytochrome P450 2C19 (Homo sapiens, UniProt P33261); assay: Cytochrome panel assay with activity outcomes. Panel member name: p450-cyp2c19 Compounds with AC50 equal or less than 10 uM are considered active; type: functional; conditions: read-out: AC50
Cytochrome P450 2C19, sequence (P33261 whole entry): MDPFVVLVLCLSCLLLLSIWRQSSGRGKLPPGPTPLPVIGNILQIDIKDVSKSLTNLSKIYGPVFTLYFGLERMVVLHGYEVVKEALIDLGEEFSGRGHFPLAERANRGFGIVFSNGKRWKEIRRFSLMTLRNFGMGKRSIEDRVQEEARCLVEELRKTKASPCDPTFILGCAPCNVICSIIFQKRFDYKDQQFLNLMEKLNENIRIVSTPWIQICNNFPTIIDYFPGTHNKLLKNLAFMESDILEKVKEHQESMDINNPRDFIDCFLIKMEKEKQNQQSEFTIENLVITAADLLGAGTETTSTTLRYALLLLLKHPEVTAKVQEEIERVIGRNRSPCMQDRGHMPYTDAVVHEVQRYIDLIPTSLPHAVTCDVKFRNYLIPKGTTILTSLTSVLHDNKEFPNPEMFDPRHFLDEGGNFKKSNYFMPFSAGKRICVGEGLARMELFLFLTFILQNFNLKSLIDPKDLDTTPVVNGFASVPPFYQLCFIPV

Cytochrome P450 1A2 = target: T4, Cytochrome P450 1A2 (Homo sapiens, UniProt P05177);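 note: PubChem cytochrome P450 panel assay, CYP1A2 panel member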
T4 sequence (P05177 whole entry): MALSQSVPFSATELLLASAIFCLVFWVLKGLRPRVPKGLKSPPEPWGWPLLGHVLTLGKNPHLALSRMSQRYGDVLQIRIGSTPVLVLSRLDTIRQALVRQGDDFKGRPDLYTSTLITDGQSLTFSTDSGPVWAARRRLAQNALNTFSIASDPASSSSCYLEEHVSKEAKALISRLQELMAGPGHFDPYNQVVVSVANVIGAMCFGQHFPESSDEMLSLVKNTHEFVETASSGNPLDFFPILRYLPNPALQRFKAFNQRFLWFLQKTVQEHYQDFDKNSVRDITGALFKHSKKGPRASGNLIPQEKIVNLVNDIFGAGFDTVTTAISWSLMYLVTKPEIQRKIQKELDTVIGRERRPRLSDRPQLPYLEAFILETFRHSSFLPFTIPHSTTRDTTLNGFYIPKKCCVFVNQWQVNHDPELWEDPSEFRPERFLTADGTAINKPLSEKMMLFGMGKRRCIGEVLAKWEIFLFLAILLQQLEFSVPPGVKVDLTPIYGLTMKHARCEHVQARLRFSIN

Cytochrome P450 3A4 [6] = target: T3, Cytochrome P450 3A4
[7] = target: T5, Polyadenylate-binding protein 1 (Homo sapiens, UniProt P11940); assay: PABP1 MLLE–PAM2 interaction inhibitors, dose response, miRNA deadenylation inhibitor project, biochemical, fluorescence polarization, Cy5-PAM2 peptide, secondary (AID 602260); type: functional; conditions: read-out: IC50_Mean
T5 sequence (P11940 whole entry): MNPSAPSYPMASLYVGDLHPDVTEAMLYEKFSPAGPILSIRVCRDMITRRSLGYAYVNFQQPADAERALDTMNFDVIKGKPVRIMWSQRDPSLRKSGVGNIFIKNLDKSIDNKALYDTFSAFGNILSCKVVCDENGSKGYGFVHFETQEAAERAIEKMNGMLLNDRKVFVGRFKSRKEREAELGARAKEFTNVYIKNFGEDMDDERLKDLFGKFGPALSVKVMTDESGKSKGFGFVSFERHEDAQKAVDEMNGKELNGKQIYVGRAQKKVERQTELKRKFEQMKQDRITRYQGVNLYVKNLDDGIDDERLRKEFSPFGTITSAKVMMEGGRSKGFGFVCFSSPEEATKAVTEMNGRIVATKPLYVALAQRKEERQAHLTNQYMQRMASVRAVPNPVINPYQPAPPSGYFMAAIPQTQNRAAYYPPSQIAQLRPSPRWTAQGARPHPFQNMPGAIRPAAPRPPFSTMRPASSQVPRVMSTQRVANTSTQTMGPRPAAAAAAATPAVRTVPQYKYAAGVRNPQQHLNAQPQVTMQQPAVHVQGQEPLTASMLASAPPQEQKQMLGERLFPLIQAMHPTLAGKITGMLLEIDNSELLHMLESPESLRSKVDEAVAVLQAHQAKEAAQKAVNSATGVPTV

[8] = target: T5, Polyadenylate-binding protein 1; assay: PABP1 MLLE–PAM2 binding inhibitor potency, dose response, biochemical, fluorescence polarization, FITC-PAM2 peptide (AID 602259); type: functional; conditions: read-out: IC50_Mean
[9] = C. albicans growth with fluconazole, confirmation, fluorescence, retest (AID 2467); type: functional, cell-based
P388 = assay: cells; type: functional;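 note: compound exposure lasted 48 hours before growth was measured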
SN12K1 = assay: cells; type: functional
[10] = target: T6, Heat shock factor protein 1 (Mus musculus, UniProt P38532); assay: inhibition of MG132-induced HSE-luciferase signal, confirmation, cell-based, NIH3T3, luminescence, dose retest (AID 2382); type: functional;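 note: NIH3T3 fibroblasts with HSF1-driven luciferase reporter stressed by proteasome inhibitor MG132; luminescence from HSF1-driven luciferase expression after 8 hours of MG132 stress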
T6 sequence (P38532 whole entry): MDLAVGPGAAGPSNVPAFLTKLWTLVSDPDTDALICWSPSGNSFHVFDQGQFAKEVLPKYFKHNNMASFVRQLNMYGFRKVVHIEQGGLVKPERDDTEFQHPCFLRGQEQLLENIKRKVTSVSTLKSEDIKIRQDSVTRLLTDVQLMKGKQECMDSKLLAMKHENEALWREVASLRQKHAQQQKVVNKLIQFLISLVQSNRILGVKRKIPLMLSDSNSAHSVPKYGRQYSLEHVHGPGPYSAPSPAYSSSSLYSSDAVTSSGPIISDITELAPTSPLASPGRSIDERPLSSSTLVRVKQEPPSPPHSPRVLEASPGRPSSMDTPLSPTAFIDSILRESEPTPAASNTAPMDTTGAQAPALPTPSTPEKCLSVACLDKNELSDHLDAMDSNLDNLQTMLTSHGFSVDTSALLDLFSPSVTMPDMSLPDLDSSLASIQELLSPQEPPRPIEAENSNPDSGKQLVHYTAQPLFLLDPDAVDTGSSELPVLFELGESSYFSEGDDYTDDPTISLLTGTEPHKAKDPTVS

[11] = Luminescence Cell-Based Dose Retest to Confirm Inhibitors of Cancer Stem Cells. [Related pubchem assays (depositor defined):AID2717, AID2721]; type: functional; conditions: Homo sapiens
cells = type: functional
[12] = target: T7, Ubiquitin-conjugating enzyme E2 N (Homo sapiens, UniProt P61088); type: functional;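 note: Dose-response confirmation in a TR-FRET assay detecting UBC13-driven polyubiquitin chain formation, inhibition measured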
T7 sequence (P61088 whole entry): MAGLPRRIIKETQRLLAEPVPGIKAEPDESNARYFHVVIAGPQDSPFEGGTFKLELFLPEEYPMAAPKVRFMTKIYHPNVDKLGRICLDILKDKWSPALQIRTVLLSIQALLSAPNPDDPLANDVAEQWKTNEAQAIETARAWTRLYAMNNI

[13] = tested on: Streptococcus sp. 'group A'; assay: growth inhibition of control SK(-) GAS strain, dose response, counter-screen for streptokinase expression inhibitor project, luminescence, kanamycin, BacTiterGlo, confirmation (AID 1900); type: functional, organism-based
Streptokinase A = target: T8, Streptokinase A (Streptococcus pyogenes serotype M1, UniProt P10520); assay: S. pyogenes streptokinase expression inhibitors, potency, dose response, plasminogen activation absorbance, OD405 (AID 1914); type: functional, Streptococcus pyogenes M1 GAS;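 note: secreted streptokinase activity via plasminogen activation per viability signal from cell pellet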
T8 sequence (P10520 whole entry): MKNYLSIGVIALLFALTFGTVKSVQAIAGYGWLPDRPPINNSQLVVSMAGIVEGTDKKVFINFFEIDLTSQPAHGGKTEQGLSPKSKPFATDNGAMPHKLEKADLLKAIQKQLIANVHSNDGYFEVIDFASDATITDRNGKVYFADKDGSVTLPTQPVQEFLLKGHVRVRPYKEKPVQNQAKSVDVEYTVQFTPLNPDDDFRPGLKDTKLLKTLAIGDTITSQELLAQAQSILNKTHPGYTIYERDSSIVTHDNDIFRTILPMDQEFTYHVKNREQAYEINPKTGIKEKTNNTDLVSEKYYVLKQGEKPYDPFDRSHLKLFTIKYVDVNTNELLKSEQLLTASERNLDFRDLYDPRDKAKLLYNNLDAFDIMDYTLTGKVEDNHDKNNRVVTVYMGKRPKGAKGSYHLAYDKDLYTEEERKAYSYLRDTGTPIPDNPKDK

Streptococcus = assay: Group A Streptococcus viability loss, dose response, counter-screen for streptokinase expression inhibitor project, luminescence, BacTiterGlo (AID 1915); type: functional, organism-based;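 note: potency for reduction of bacterial viability or growth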
HEK293 = assay: inhibitors of LMP1-driven NF-kB reporter, dose response, cell-based, HEK293, luciferase, cherry-pick (AID 588343); type: functional; conditions: Homo sapiens

Cc1ccc(S(=O)(=O)N2CCCCC2)cc1NC(=O)COC(=O)c1ccc2c(c1)OCO2
IC50 [1]: 1.74 µM (not active)

CN1CCN(S(=O)(=O)c2ccc(N3CCN(c4ccc(O)cc4)CC3)c([N+](=O)[O-])c2)CC1
IC50 (Large T antigen): 8.6 µM (active) | AC50 [2]: 2.62 µM (active)

CCOc1cc(/C=C2/N=C(C)C(C(=O)OC)=C2O)ccc1O
IC50 (Large T antigen): 5.78 µM (active) | IC50 [3]: 26.3 µM (active)

Cc1[nH]c2ccccc2c1/C=N\NC(=O)Cn1nnc(-c2ccccc2)n1
IC50 [1]: > 50 µM (not active)

CC(C)n1c(O)c(N=NC(=O)CNC(=O)CCc2ccccc2)c2ccccc21
IC50 [1]: > 50 µM (not active)

CC(NC(=O)Nc1ccccc1F)C(C)(C)C (stereo unspecified)
EC50 [4]: > 160 µM (inconclusive)

O=c1c2cc(-c3ccccc3)sc2nc2n1N=C(c1ccccc1)CS2
CC50 (Vero): > 25 µM (active)

CC(=O)NNC(=O)N1Cc2ccccc2Oc2ccc(Cl)cc21
AC50 (Cytochrome P450 3A4 [5]): 12.6 µM (inconclusive) | AC50 (Cytochrome P450 2C19): 5.01 µM (inconclusive) | AC50 (Cytochrome P450 1A2): 31.6 µM (inconclusive) | AC50 (Cytochrome P450 3A4 [6]): 20 µM (inconclusive)

COc1cc(NS(=O)(=O)c2ccc(NC(=S)NC(=O)c3sc4ccccc4c3Cl)cc2)nc(OC)n1
IC50 [1]: > 50 µM (not active) | IC50 [7]: > 66 µM (inactive) | IC50 [8]: > 66 µM (inactive)

CCOC(=O)C(=NC1CCCCC1)NNc1cccc(C(F)(F)F)c1
EC50 [4]: > 150 µM (inconclusive) | EC50 [9]: > 38 µM (not active)

CCCCCCCCCCSCC(CO)NC(=O)/C=C/c1c(C)[nH]c(=O)[nH]c1=O (stereo unspecified)
GI50 (P388): 0.479 µM (active) | GI50 (P388; Mus musculus, P388): 0.284 µM (active) | GI50 (SN12K1): 1.26 µM (inactive) | GI50 (SN12K1; Homo sapiens, SN12K1): 1.05 µM (active)

COc1ccc(/C=N/NC(=O)CCc2nnc(O)nc2O)cc1O
IC50 (Large T antigen): 28.9 µM (active)

Cc1cc(C)cc(SCc2noc(C(=O)NCc3ccccc3)c2C(=O)NCc2ccccc2)c1
IC50 [1]: 6.27 µM (not active) | EC50 [10]: > 195 µM (not active)

O=C(NCCCN1CCOCC1)c1ccc(CSc2ccc(Cl)cc2)cc1
AC50 [11]: 1.25 µM (active) | CC50 (Vero): > 25 µM (active) | IC50 (cells): 34.3 µM (active)

CN(C)/N=C/c1cc([N+](=O)[O-])ccc1O
IC50 [1]: 13.8 µM (not active)

Cc1nnc(O)nc1Nc1ccc(O)cc1
IC50 (Large T antigen): 4.52 µM (active)

Cc1cccc(NC(=O)CN2C(=O)N/C(=C/c3cc(C)n(-c4cccnc4)c3C)C2=O)c1
IC50 [1]: > 50 µM (not active)

CC[C@H](C)[C@@H]1NC(=O)c2cc([N+](=O)[O-])cc(F)c2NCCCC[C@@H](C(N)=O)NC(=O)[C@H](CCCCN)NC1=O
IC50 [12]: > 20 µM (inactive)

Cc1c(O)cc2n(c1=O)-c1ccc(Cl)cc1C2(C)C
EC50 [4]: > 150 µM (inactive) | EC50 [9]: 2 µM (active)

Cc1ccc(NCc2nnc(SCC(=O)N(Cc3ccccc3)C(C)(C)C)o2)c(C)c1
IC50 [1]: 5.13 µM (not active)

CC(=O)O[C@H]1C[C@@]2(C)[C@@H](C[C@@H](O)[C@H]3[C@@]4(C)CC[C@@H](O)[C@@H](C)C4CC[C@@]32C)/C1=C(\CCC=C(C)C)C(=O)O (stereo partly specified)
EC50 [13]: 2.26 µM (active) | IC50 (Large T antigen): 24.7 µM (active) | EC50 (Streptokinase A): 1.78 µM (active) | EC50 (Streptococcus): 13.7 µM (active)

CCCN1CCN(CCCNC(=O)c2cc3c(O)nc4ccc(C)cc4c3s2)CC1
CC50 (Vero): > 25 µM (active)

C(=C\c1ccccc1)/C=N/Nc1nc(N2CCCCC2)nc(N2CCCCC2)n1
EC50 [4]: > 150 µM (inactive) | EC50 [9]: > 38 µM (not active)

NC(=S)NN=Cc1nccc2c(C(F)(F)F)cccc12
CC50 (Vero): 2.01 µM (active) | AC50 (HEK293): 1.77 µM (active)

COc1ccc(CCNC(=O)CCC2COc3ccccc3O2)cc1OC (stereo unspecified)
EC50 [4]: > 150 µM (inactive) | EC50 [9]: 16.9 µM (active)
